Columns and labels:
Type in all cases: biochemical
Settings in all cases: method of Davies et al.
[1] = biological target: cytoplasmic tyrosine kinase (CSK) (Homo sapiens, UniProt P41240); assay: Panel of protein kinases: CSK
Method: (§1) The compounds of the present invention were screened against a large panel of protein kinase to determine inhibition activity for CDK as against a variety of protein kinases. The assay was conducted using methods and materials described by Davies, S et al. Specificity and Mechanism of Action of Some Commonly Used Protein Kinase Inhibitors, Biochem J. 351, 95–105 (2000), the contents of which are herein incorporated by reference. The compounds were screened against a panel of protein kinases which include AMP-activiated protein kinase (AMPK), checkpoint kinase (CHK1), casein kinases 1 and 2 (CK1 and CK2), cytoplasmic tyrosine kinase (CSK), dual serine/threonine/tyrosine kinase (DYRK1A), glycogen synthase kinase 3 (GSK3B), c-Jun N-terminal kinase (JNK), lymphocyte kinase (LCK), mitogen-activated protein kinases 2, K-1a, K2 (MAPK2, MAPKAP-K1a, and MAPKAP-K2), MAPK kinase (MKK1, also called MEK), mitogen and stress-activated protein kinase 1 (MSK1), never-in-mitosis kinase 6 (NEK6), p70 ribosomal protein S6 kinase (P70s6K1), 3-phosphoinositide-dependent protein kinase 1 (PDK1), phosphorylase kinase (PHK), protein kinase A (PKA), protein kinase B (PKB, also called Akt), protein kinase C (PKCa), p38-regulated/activated kinase (PRAK), Rho-dependent protein kinase (ROCK-II), stress-activated protein kinase 2a, 2b, 3 and 4 (SAPK-2A or p38, SAPK-2b or p38β2, SAPK3 or p38γ, SAPK4 or p38δ, respectively), and serum- and glucocorticoid-induced kinase (SGK). Compound activity was grouped into categories of weak (<50%), moderate (50–75%) and strong inhibition (>75%).

MAPKAP-K1a = MAPKAP-K1a (Homo sapiens, UniProt Q15418); assay: Panel of protein kinases: MAPKAP-K1a
Method: as §1

[2] = biological target: T1, 3-phosphoinositide-dependent protein kinase 1 (PDK1) (Homo sapiens, UniProt O15530); assay: Panel of protein kinases: PDK1
T1 sequence (O15530 1-556): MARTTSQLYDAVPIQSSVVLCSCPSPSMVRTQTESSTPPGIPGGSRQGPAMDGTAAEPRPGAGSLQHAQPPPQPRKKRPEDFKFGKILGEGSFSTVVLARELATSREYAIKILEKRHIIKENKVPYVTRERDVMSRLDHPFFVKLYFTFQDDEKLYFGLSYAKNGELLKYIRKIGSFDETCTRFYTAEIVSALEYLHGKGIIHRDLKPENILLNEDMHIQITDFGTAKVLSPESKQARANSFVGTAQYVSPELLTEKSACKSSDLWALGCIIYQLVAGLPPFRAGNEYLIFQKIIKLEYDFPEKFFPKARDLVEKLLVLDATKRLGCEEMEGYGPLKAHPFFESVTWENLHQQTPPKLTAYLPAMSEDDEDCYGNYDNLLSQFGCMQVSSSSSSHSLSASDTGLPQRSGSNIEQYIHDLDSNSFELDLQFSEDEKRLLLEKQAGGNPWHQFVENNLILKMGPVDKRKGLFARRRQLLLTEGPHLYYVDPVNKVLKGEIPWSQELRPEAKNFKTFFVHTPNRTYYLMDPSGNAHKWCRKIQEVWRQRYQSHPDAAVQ
Method: as §1

[3] = biological target: stress-activated protein kinase 2a (SAPK-2A or p38) (Homo sapiens, UniProt Q16539); assay: Panel of protein kinases: SAPK-2A
Method: as §1

checkpoint kinase (CHK1) = biological target: T2, checkpoint kinase (CHK1) (Homo sapiens, UniProt O14757); assay: Panel of protein kinases: CHK1
T2 sequence (O14757 1-476): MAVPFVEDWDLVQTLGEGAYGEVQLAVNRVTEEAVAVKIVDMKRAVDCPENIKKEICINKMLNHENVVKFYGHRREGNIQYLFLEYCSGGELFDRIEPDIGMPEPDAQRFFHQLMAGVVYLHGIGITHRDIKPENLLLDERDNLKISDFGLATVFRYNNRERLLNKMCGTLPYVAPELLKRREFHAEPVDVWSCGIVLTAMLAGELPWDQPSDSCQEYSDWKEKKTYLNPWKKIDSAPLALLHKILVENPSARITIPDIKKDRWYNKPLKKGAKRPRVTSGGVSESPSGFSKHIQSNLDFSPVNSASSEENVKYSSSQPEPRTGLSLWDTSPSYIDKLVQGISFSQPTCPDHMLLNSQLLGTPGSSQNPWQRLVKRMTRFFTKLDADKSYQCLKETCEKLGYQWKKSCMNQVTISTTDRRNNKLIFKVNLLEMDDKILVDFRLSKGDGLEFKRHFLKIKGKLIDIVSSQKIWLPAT
Method: as §1

[4] = biological target: T3, p38-regulated/activated kinase (PRAK) (Homo sapiens, UniProt Q8IW41); assay: Panel of protein kinases: PRAK
T3 sequence (Q8IW41 1-473): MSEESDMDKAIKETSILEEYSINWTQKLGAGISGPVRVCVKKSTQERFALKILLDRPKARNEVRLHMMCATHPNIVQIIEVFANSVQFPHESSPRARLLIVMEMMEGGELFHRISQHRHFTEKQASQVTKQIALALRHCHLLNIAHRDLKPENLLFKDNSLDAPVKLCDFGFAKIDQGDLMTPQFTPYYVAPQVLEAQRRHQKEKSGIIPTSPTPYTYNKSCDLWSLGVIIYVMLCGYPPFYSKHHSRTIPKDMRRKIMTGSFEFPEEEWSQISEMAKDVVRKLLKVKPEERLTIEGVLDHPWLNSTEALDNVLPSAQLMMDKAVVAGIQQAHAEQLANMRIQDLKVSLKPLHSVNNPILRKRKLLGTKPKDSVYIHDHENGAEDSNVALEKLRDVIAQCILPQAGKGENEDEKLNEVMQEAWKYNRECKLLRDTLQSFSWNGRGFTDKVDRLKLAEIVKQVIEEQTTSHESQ
Method: as §1

[5] = biological target: mitogen-activated protein kinase 2 (MAPK2) (Homo sapiens, UniProt P28482); assay: Panel of protein kinases: MAPK2
Method: as §1

MAPKAP-K2 = MAPKAP-K2 (Homo sapiens, UniProt P49137); assay: Panel of protein kinases: MAPKAP-K2
Method: as §1

[6] = biological target: protein kinase B (PKB, also called Akt) (Homo sapiens, UniProt P31749); assay: Panel of protein kinases: PKB
Method: as §1

[7] = biological target: c-Jun N-terminal kinase (JNK) (Homo sapiens, UniProt P45983); assay: Panel of protein kinases: JNK
Method: as §1

[8] = biological target: mitogen and stress-activated protein kinase 1 (MSK1) (Homo sapiens, UniProt O75582); assay: Panel of protein kinases: MSK1
Method: as §1

Chain of mitogen and stress-activated protein kinase 1 (MSK1) (O75582 whole entry, species assumed): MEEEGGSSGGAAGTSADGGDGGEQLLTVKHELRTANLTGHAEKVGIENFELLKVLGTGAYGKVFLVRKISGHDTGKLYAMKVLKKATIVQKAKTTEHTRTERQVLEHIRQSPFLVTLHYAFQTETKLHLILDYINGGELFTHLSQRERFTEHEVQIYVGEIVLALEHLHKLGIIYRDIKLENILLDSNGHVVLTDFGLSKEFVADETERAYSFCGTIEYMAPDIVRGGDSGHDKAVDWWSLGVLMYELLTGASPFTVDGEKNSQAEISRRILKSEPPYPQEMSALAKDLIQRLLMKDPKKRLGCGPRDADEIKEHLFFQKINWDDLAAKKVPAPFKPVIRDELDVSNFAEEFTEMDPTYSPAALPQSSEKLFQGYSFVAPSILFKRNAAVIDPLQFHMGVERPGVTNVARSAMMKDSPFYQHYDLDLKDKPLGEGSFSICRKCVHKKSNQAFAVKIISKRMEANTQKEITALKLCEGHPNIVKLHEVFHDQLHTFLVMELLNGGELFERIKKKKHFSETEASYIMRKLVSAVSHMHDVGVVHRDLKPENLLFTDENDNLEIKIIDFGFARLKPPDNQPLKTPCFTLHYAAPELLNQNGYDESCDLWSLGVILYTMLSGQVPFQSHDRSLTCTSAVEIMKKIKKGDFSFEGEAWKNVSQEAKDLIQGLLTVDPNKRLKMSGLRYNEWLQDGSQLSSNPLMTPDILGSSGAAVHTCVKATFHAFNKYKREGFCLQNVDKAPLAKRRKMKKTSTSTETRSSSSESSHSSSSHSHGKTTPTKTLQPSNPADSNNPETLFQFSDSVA
Chain of protein kinase B (PKB, also called Akt) (P31749 118-480 limits assumed, species assumed): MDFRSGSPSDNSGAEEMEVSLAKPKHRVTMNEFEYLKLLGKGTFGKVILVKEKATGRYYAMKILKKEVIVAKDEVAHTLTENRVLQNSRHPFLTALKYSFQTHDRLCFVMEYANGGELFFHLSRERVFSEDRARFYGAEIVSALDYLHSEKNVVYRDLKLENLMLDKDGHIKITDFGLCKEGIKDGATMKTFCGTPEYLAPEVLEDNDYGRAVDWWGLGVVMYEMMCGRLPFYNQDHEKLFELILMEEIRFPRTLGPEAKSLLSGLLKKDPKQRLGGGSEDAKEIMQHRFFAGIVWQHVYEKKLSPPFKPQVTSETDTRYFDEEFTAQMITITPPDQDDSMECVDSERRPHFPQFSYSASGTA
Chain of c-Jun N-terminal kinase (JNK) (P45983 whole entry): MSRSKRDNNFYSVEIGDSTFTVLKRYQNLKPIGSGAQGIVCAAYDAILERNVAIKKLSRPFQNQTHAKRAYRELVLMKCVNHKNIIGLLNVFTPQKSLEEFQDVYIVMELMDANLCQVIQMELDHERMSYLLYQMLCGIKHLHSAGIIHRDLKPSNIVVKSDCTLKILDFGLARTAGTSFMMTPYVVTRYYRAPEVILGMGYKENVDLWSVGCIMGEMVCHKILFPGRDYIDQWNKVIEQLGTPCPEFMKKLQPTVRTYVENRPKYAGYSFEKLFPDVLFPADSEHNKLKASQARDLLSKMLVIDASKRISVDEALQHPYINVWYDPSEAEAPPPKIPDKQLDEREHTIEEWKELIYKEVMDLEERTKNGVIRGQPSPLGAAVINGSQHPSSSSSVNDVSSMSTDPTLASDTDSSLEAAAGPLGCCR
Chain of cytoplasmic tyrosine kinase (CSK) (P41240 whole entry, species assumed): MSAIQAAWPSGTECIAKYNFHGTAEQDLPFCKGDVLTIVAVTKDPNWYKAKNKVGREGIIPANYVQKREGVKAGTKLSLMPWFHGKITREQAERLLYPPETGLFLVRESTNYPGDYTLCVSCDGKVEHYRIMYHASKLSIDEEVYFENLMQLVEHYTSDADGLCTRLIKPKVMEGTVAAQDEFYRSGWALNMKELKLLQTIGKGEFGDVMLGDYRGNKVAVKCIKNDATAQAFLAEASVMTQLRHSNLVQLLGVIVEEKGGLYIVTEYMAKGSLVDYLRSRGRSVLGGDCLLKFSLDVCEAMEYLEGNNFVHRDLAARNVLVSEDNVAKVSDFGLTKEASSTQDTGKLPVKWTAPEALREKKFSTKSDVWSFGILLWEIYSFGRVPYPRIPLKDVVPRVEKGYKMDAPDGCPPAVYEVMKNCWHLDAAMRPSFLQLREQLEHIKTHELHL
Chain of MAPKAP-K1a (Q15418 whole entry, species assumed): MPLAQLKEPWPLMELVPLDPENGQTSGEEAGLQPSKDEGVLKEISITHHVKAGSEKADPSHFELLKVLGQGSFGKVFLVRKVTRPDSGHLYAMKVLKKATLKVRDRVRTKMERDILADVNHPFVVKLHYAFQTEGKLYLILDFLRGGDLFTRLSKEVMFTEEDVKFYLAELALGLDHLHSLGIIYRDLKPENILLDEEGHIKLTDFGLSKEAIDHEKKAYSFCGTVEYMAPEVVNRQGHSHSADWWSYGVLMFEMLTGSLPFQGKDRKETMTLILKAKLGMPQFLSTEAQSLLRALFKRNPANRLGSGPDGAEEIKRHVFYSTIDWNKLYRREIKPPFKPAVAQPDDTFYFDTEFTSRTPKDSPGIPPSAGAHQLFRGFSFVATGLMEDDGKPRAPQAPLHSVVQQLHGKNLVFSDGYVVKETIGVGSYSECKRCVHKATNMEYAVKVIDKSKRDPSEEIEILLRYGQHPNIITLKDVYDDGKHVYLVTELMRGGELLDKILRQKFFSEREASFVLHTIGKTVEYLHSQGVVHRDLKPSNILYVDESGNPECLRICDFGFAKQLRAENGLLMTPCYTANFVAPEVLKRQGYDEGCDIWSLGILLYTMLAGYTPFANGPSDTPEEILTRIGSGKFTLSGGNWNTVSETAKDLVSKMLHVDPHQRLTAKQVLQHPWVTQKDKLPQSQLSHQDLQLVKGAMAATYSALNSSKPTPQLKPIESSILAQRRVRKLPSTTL
Chain of MAPKAP-K2 (P49137 whole entry, species assumed): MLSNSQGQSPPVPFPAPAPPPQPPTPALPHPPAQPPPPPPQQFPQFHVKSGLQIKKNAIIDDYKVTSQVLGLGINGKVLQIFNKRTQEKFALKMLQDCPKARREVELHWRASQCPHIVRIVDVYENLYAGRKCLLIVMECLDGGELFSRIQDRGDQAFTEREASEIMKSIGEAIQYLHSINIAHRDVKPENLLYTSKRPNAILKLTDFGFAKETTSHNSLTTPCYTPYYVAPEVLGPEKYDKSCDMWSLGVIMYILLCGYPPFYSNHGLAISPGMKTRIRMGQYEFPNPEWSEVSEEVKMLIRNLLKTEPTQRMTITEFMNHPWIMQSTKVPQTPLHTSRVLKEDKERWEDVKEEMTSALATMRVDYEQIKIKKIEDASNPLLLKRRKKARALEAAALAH
Chain of stress-activated protein kinase 2a (SAPK-2A or p38) (Q16539 whole entry, species assumed): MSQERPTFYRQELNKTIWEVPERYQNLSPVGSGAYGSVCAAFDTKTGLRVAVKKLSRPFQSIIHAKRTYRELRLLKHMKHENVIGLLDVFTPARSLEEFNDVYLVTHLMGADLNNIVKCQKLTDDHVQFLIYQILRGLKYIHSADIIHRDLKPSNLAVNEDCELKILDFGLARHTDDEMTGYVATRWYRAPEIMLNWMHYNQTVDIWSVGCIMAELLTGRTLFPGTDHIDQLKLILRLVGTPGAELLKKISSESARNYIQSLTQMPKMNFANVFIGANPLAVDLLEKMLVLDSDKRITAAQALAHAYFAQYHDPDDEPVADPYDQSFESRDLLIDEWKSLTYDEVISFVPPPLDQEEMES
Chain of mitogen-activated protein kinase 2 (MAPK2) (P28482 whole entry): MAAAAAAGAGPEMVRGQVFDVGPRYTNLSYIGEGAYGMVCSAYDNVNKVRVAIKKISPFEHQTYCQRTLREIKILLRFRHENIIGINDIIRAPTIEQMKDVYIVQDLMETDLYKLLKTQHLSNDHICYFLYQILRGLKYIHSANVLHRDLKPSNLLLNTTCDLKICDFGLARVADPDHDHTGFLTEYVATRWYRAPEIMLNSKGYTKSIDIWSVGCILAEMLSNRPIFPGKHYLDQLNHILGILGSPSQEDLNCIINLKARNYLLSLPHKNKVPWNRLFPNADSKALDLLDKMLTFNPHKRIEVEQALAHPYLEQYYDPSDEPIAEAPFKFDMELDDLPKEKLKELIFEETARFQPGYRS

Compound	Kinase CSK inhibition [1]	Kinase MAPKAP-K1a inhibition (MAPKAP-K1a)	Kinase PDK1 inhibition [2]	Kinase SAPK-2A inhibition [3]	Kinase CHK1 inhibition (checkpoint kinase (CHK1))	Kinase PRAK inhibition [4]	Kinase MAPK2 inhibition [5]	Kinase MAPKAP-K2 inhibition (MAPKAP-K2)	Kinase PKB inhibition [6]	Kinase JNK inhibition [7]	Kinase MSK1 inhibition [8]
CCNCc1cncc(-c2ccc3[nH]nc(-c4nc5ccccc5[nH]4)c3c2)c1C [A]	− (Weak inhibition <50%)	++ (Strong inhibition >75%)	+ (Moderate inhibition 50–75%)	− (Weak inhibition <50%)	+ (Moderate inhibition 50–75%)	++ (Strong inhibition >75%)	− (Weak inhibition <50%)	− (Weak inhibition <50%)	− (Weak inhibition <50%)	− (Weak inhibition <50%)	− (Weak inhibition <50%)
CCNCc1cncc(-c2ccc3[nH]nc(-c4nc5c(C(=O)NC)cccc5[nH]4)c3c2)c1C [B]	− (Weak inhibition <50%)	++ (Strong inhibition >75%)	− (Weak inhibition <50%)	− (Weak inhibition <50%)	+ (Moderate inhibition 50–75%)	+ (Moderate inhibition 50–75%)	− (Weak inhibition <50%)	− (Weak inhibition <50%)	− (Weak inhibition <50%)	− (Weak inhibition <50%)	− (Weak inhibition <50%)
CCNCc1cncc(-c2ccc3[nH]nc(-c4nc5c(SC)cccc5[nH]4)c3c2)c1C [C]	− (Weak inhibition <50%)	++ (Strong inhibition >75%)	− (Weak inhibition <50%)	− (Weak inhibition <50%)	− (Weak inhibition <50%)	++ (Strong inhibition >75%)	− (Weak inhibition <50%)	− (Weak inhibition <50%)	− (Weak inhibition <50%)	− (Weak inhibition <50%)	− (Weak inhibition <50%)
CCNCc1cncc(-c2ccc3[nH]nc(-c4nc5c(NC(C)=O)cccc5[nH]4)c3c2)c1C [D]	− (Weak inhibition <50%)	+ (Moderate inhibition 50–75%)	− (Weak inhibition <50%)	− (Weak inhibition <50%)	− (Weak inhibition <50%)	+ (Moderate inhibition 50–75%)	− (Weak inhibition <50%)	− (Weak inhibition <50%)	− (Weak inhibition <50%)	− (Weak inhibition <50%)	− (Weak inhibition <50%)
CCNCc1cncc(-c2ccc3[nH]nc(-c4nc5c(F)cc(F)cc5[nH]4)c3c2)c1C [Example 1, {5-[3-(4,6-Difluoro-1H-benzoimidazol-2-yl)-1H-indazol-5-yl]-4-methyl-pyridin-3-ylmethyl}-ethyl-amine]	− (Weak inhibition <50%)	++ (Strong inhibition >75%)	− (Weak inhibition <50%)	− (Weak inhibition <50%)	− (Weak inhibition <50%)	− (Weak inhibition <50%)	− (Weak inhibition <50%)	− (Weak inhibition <50%)	− (Weak inhibition <50%)	− (Weak inhibition <50%)	− (Weak inhibition <50%)
CCNCc1cncc(-c2ccc3[nH]nc(-c4nc5cc(F)ccc5[nH]4)c3c2)c1C [Example 2, Ethyl-{5-[3-(5-fluoro-1H-benzoimidazol-2-yl)-1H-indazol-5-yl]-4-methyl-pyridin-3-ylmethyl}-amine]	− (Weak inhibition <50%)	− (Weak inhibition <50%)	− (Weak inhibition <50%)	− (Weak inhibition <50%)	− (Weak inhibition <50%)	− (Weak inhibition <50%)	− (Weak inhibition <50%)	− (Weak inhibition <50%)	− (Weak inhibition <50%)	− (Weak inhibition <50%)	− (Weak inhibition <50%)

Reference: patent US7008953B2, “3, 5 Disubstituted indazole compounds, pharmaceutical compositions, and methods for mediating or inhibiting cell proliferation” (Agouron Pharmaceuticals, Inc., priority 2003, dated 2006)
